Results: patent US20170226518A1, “COMPOSITIONS AND METHODS FOR TREATING CANCER” (Autotelic LLC, priority 2016, published 2017)
In the oligonucleotide strings, read from the 5' end, every base follows the letter of its sugar. An asterisk marks phosphorothioate; unmarked linkages are phosphodiester. Other units and linkages are bracketed, terminal groups are in braces. A string of capitals states the bases alone. d = 2'-deoxy (DNA)

Key:
A-172 glioma cells = assay: Migration of A-172 glioma cells; assay type: cell-based; settings: AP12009 10 μM as monotherapy, compared with untreated control
Method: A-172 glioma cells were treated with a combination of AP12009 (trabedersen) 0 to 10 μM) and different concentrations of TMZ (temozolomide) for 7 days (treatment schedule 2*2/1*3 d).

[1] = Phase I/II dose escalation study P-001: safety and tolerability (MTD, DLT, TEAE, SAE), i.v. infusion; assay type: in vivo, human
Method: Over-expression of transforming growth factor-beta 2 (TGF-β2) is associated with poor prognosis and plays a key role for malignant progression of various tumors by inducing proliferation, metastasis, angiogenesis and immunosuppression. P-001 trial of trabedersen—Safety and Tolerability of AP 12009 (trabedersen), Administered I.V. in Patients With Advanced Tumors Known to Overproduce TGFβ2, was evaluated to determine if treatment with trabedersen primed the tumors to subsequent chemotherapy.
In the instant study, the primary objective was to determine the Maximum Tolerated Dose (MTD) and the Dose Limited Toxicity (DLT) of two cycles of trabedersen administered intravenously (i.v.) for either 7 days every other week (i.e. 7 days on/7 days off) or for 4 days every other week (4 days on/10 days off). The secondary objective included assessment of antitumor activity of trabedersen administered intravenously for either 7 days every other week (i.e. 7 days on/7 days off) or for 4 days every other week (4 days on/10 days off).
The escalation scheme of this study aimed to determinate the MTD of two cycles of trabedersen (so called ‘core study period’) administered as a continuous i.v. infusion for 7 days every other week (7-days-on/7-days-off) or for 4 days every other week (4-days-on/10-days-off).
In general, it was planned to enroll a cohort of at least 3 evaluable patients per treatment group. For each cohort, the safety data obtained until end of the core study period (period for DLT-assessment, Cycle 1 and Cycle 2) were assessed in an interim analysis and evaluated by a Data and Safety Monitoring Board (DSMB). […] If 2 of these 3 patients experienced a DLT, the number of evaluable patients for the subsequent treatment group was increased to 6 for further evaluation of toxicity. Patients who were withdrawn from the study due to adverse events (AEs) attributed to DLT by the treating clinician, were not replaced but were used to determine the MTD and to evaluate the safety of the study drug. If patients were withdrawn due to other reasons, they were replaced until the treatment group was complete.
The MTD was determined according to the following procedure: If 2 out of 3 patients of 1 cohort experienced a DLT, 3 more patients were enrolled in the same treatment group. If at least 1 of these additional 3 patients also met the toxicity criteria for a DLT, the MTD for two cycles was determined; otherwise the dose escalation was continued upon agreement with the DSMB. MTD for two cycles was then defined as the dose at which no more than 2 out of 3, or 2 out of 6 patients of the same treatment group experienced a DLT. This procedure was followed until the MTD was reached.
After dose escalation had been completed, an additional larger cohort of patients was enrolled and treated with a dose of 140 mg/m^2/day employing the 4-days-on/10-days-off schedule, with endorsement by the DSMB. This cohort was to include at least 12 patients with a histologically or cytologically confirmed diagnosis of stage III or IV pancreatic cancer, corresponding to AJCC 1997 stage IVa and IVb, respectively, and at least 12 patients with stage III or IV melanoma.
The safety population comprised of 61 patients, representing all patients for whom at least once a trabedersen infusion was started. According to the protocol, the MTD was determined according to the following procedure: if 2 out of 3 patients of one cohort experience dose-limiting toxicity, 3 more patients were enrolled in the same treatment group. If at least 1 more patient of this second cohort met the toxicity criteria, MTD for two cycles has been determined (otherwise escalation was continued). MTD for two cycles was then defined as the dose at which no more than 2 out of 3 or 2 out of 6 patients of the same treatment group experienced DLT. […] In the case that 2 patients of the first cohort experienced DLTs that clearly indicated attainment of the MTD, the second cohort could also be omitted. […]

[2] = 4-days-on and 10-days-off schedule
[3] = 4-days-on, 10-daysoff schedule (N = 44)
[4] = 7-days-on and 7-days-off schedule
[5] = 7-days-on, 7-daysoff schedule (N = 17)

trabedersen: TGFβ2 specific phosphorothioate antisense oligodeoxynucleotide with the sequence 5′-CGGCATGTCTATTTTGTA-3′ (SEQ ID No: 1) (antisense dC*dG*dG*dC*dA*dT*dG*dT*dC*dT*dA*dT*dT*dT*dT*dG*dT*dA)
effect on migration of A-172 cells (A-172 glioma cells): did not affect migration | DLT observed ([1]; 140 mg/m^2/day, 4-days-on and 10-days-off schedule, one patient): dose-limiting Grade 3 upper gastrointestinal hemorrhage | patients who experienced a DLT ([1]; 240 mg/m^2/day, 7-days-on and 7-days-off, 2 Grade 3 thrombocytopenia, 1 Grade 3 maculopapular rash): 3 patients | frequency of patients with TEAEs that led to treatment discontinuation [1, 2]: 15.9% | patients with TEAEs that led to treatment discontinuation [1, 2]: 7 patients | Any SAE: No. (%) of patients with SAE [1, 3]: 18 (40.9) No. (%) of patients | Any SAE: No. of SAEs [1, 3]: 28 No. of SAEs | Ascites: No. (%) of patients with SAE [1, 3]: 0 No. (%) of patients | Cancer Pain: No. (%) of patients with SAE [1, 3]: 2 (4.5) No. (%) of patients | Cancer Pain: No. of SAEs [1, 3]: 2 No. of SAEs | Catheter related Infection: No. (%) of patients with SAE [1, 3]: 1 (2.3) No. (%) of patients | Catheter related Infection: No. of SAEs [1, 3]: 1 No. of SAEs | Cholangitis: No. (%) of patients with SAE [1, 3]: 3 (6.8) No. (%) of patients | Cholangitis: No. of SAEs [1, 3]: 3 No. of SAEs | Cholestasis: No. (%) of patients with SAE [1, 3]: 1 (2.3) No. (%) of patients | Cholestasis: No. of SAEs [1, 3]: 1 No. of SAEs | GI hemorrhage: No. (%) of patients with SAE [1, 3]: 1 (2.3) No. (%) of patients | GI hemorrhage: No. of SAEs [1, 3]: 2 No. of SAEs | Pneumonia: No. (%) of patients with SAE [1, 3]: 0 No. (%) of patients | Upper GI hemorrhage: No. (%) of patients with SAE [1, 3]: 1 (2.3) No. (%) of patients | Upper GI hemorrhage: No. of SAEs [1, 3]: 1 No. of SAEs | frequency of patients with TEAEs that led to treatment discontinuation [1, 4]: 41.2% | patients with TEAEs that led to treatment discontinuation [1, 4]: 7 patients | daily dose of MTD ([1]; 7-days-on and 7-days-off schedule, approx.): approx. 4 mg/kg/day | Any SAE: No. (%) of patients with SAE [1, 5]: 12 (70.6) No. (%) of patients | Any SAE: No. of SAEs [1, 5]: 28 No. of SAEs | Ascites: No. (%) of patients with SAE [1, 5]: 3 (17.6) No. (%) of patients | Ascites: No. of SAEs [1, 5]: 3 No. of SAEs | Cancer Pain: No. (%) of patients with SAE [1, 5]: 0 No. (%) of patients | Catheter related Infection: No. (%) of patients with SAE [1, 5]: 2 (11.8) No. (%) of patients | Catheter related Infection: No. of SAEs [1, 5]: 2 No. of SAEs | Cholangitis: No. (%) of patients with SAE [1, 5]: 1 (5.9) No. (%) of patients | Cholangitis: No. of SAEs [1, 5]: 1 No. of SAEs | Cholestasis: No. (%) of patients with SAE [1, 5]: 1 (5.9) No. (%) of patients | Cholestasis: No. of SAEs [1, 5]: 1 No. of SAEs | GI hemorrhage: No. (%) of patients with SAE [1, 5]: 2 (11.8) No. (%) of patients | GI hemorrhage: No. of SAEs [1, 5]: 3 No. of SAEs | Pneumonia: No. (%) of patients with SAE [1, 5]: 3 (17.6) No. (%) of patients | Pneumonia: No. of SAEs [1, 5]: 3 No. of SAEs | Upper GI hemorrhage: No. (%) of patients with SAE [1, 5]: 1 (5.9) No. (%) of patients | Upper GI hemorrhage: No. of SAEs [1, 5]: 1 No. of SAEs | Maximum Tolerated Dose (MTD) ([1]; 4 days on and 10 days off regimen, MTD not reached at highest dose tested): > 330 mg/m^2/d | Maximum Tolerated Dose (MTD) ([1]; 7 days on and 7 days off regimen, continuous i.v. infusion, two cycles): 160 mg/m^2/d | Any SAE: No. (%) of patients with SAE ([1]; Total (N = 61)): 30 (49.2) No. (%) of patients | Any SAE: No. of SAEs ([1]; Total (N = 61)): 56 No. of SAEs | Ascites: No. (%) of patients with SAE ([1]; Total (N = 61)): 3 (4.9) No. (%) of patients | Ascites: No. of SAEs ([1]; Total (N = 61)): 3 No. of SAEs | Cancer Pain: No. (%) of patients with SAE ([1]; Total (N = 61)): 2 (3.3) No. (%) of patients | Cancer Pain: No. of SAEs ([1]; Total (N = 61)): 2 No. of SAEs | Catheter related Infection: No. (%) of patients with SAE ([1]; Total (N = 61)): 3 (4.9) No. (%) of patients | Catheter related Infection: No. of SAEs ([1]; Total (N = 61)): 3 No. of SAEs | Cholangitis: No. (%) of patients with SAE ([1]; Total (N = 61)): 4 (6.6) No. (%) of patients | Cholangitis: No. of SAEs ([1]; Total (N = 61)): 4 No. of SAEs | Cholestasis: No. (%) of patients with SAE ([1]; Total (N = 61)): 2 (3.3) No. (%) of patients | Cholestasis: No. of SAEs ([1]; Total (N = 61)): 2 No. of SAEs | GI hemorrhage: No. (%) of patients with SAE ([1]; Total (N = 61)): 3 (4.9) No. (%) of patients | GI hemorrhage: No. of SAEs ([1]; Total (N = 61)): 3 No. of SAEs | Pneumonia: No. (%) of patients with SAE ([1]; Total (N = 61)): 3 (4.9) No. (%) of patients | Pneumonia: No. of SAEs ([1]; Total (N = 61)): 3 No. of SAEs | Upper GI hemorrhage: No. (%) of patients with SAE ([1]; Total (N = 61)): 2 (3.3) No. (%) of patients | Upper GI hemorrhage: No. of SAEs ([1]; Total (N = 61)): 2 No. of SAEs | frequency of patients with TEAEs that led to treatment discontinuation ([1]; all patients): 23.0% | patients with TEAEs that led to treatment discontinuation ([1]; all patients): 14 patients | total of TEAEs that led to treatment discontinuation ([1]; all patients): 23 TEAEs | frequency of patients with TEAEs that led to treatment discontinuation ([1]; colorectal cancer): 40.0% | patients with TEAEs that led to treatment discontinuation ([1]; colorectal cancer): 2 patients | frequency of patients with TEAEs that led to treatment discontinuation ([1]; melanoma): 15.8% | patients with TEAEs that led to treatment discontinuation ([1]; melanoma): 3 patients | frequency of patients with TEAEs that led to treatment discontinuation ([1]; pancreatic cancer): 24.3% | patients with TEAEs that led to treatment discontinuation ([1]; pancreatic cancer): 9 patients | patients for whom a DLT was proclaimed ([1]; whole study: 2 pancreatic carcinoma, 2 colorectal cancer): 4 patients
